Experimental data: PMC12106615, “Population pharmacokinetics of colistin sulfate in critically ill patients based on NONMEM” (Scientific Reports, 2025)
Where a name gives a salt, the structure may show the parent alone. Bridge positions count the residues as written; N and C are the ends. Square brackets hold non-standard residues; d marks the D form. Peptide text beside a SMILES is read from it. * marks the point of attachment. X1 = CC[C@H](C)CCCCC(=O)*; Dab = NCC[C@H](N)C(=O)O

Tests used:
[1] = 14 patients with successful treatment; ref Yu et al.[14]; cited from earlier work
Procedure: The steady-state plasma concentration (Css.avg) of these 129 patients was 0.93 ± 0.35 mg/L, which was inconsistent with the value (2.0–2.4 mg/L) jointly recommended by the multidisciplinary expert consensus[17] on the rational clinical use of colistin in China. This consensus considered that the in vitro antimicrobial activit ...

[2] = Population pharmacokinetic (PPK) model of colistin sulfate, NONMEM, two-compartment with first-order elimination; type: in vivo, human
Procedure: PPK analyses were performed using NONMEM version 7.5 (Icon Development Solutions, Ellicott City, MD, USA) and Pirana version 3.0. Ggplot2 version 3.5.1 package in R software (version 4.1.3, R-project.org) and Xpose version 4.3.2 packages were used to generate line plots and diagnostic plots, respectively.
One- and two-compartment structural models with first-order elimination characteristics of colistin sulfate were constructed using NONMEM software. Between-subject variability (BSV) was assessed using an exponential function. Within-subject variability (WSV) was assessed by additive, proportional, or combined (additive plus proportional) models, while model with the smallest variability represented the best ones. The base model was chosen according to diagnostic plots and goodness-of-fit criteria, including improvement of the OFV and precision and plausibility of parameter estimation. The factors influencing fixed effects were screened based on our previous study. Covariates were included in the base models in a stepwise manner, and testing was performed by using the following statistical criteria: ΔOFV > 3.84, P < 0.05. The covariate was considered to have a significant influence at ΔOFV > 3.84 and retained in the model or eliminated otherwise. All covariates with significant influence on models were then incorporated into the base models to construct full regression models. The full regression models were then subjected to reverse elimination. The included covariates were tested using stricter statistical criteria (ΔOFV > 6.63, P < 0.01), and covariates showing a small influence on the models were eliminated, thereby yielding the final model.
Goodness-of-fit plots, nonparametric bootstrap, and pc-VPC were used to evaluate the final model and parameter estimates. A nonparametric bootstrap procedure was utilized to assess the performance and stability of the final model. Random sampling and individual replacement were used to generate 1000 replicate datasets. The median and 95% CI values of the final model parameters obtained using bootstrap validation were then compared, and the predictive performance of the model was validated. The dataset was simulated 1000 times using the $SIMULATION block in NONMEM. The 90% CI values for the 5 th, 50 th, and 95 th percentiles of the simulated concentrations were calculated. The time curves were then plotted after the last dose and compared with the observed concentrations for prediction and variability correction using pc-VPC.

[3] = previous studies; ref [14],[25]–[29]; cited from earlier work
Description: Advanced age, the presence of multiple coexisting diseases, severe infections, low fluid replacement volume, and exposure to combination therapy with multiple drugs are recognized as risk factors for the development of acute kidney injury associated with colistin sulfate treatment. If colistin sulfate is the only factor considered, a Css level of ...

[4] = Nephrotoxicity / acute kidney injury by RIFLE criteria; type: in vivo, human; settings: 178 critically ill patients, empirical intravenous colistin sulfate; RIFLE criteria without urinary output criterion
Description: (§1) The retrospective study subjects were patients admitted to Beijing Electric Power Hospital, Beijing, China, between May 2022 and May 2024. The study design conformed to the principles of the Declaration of Helsinki, and the study was approved by the Ethics Research Committee of Beijing Electric Power Hospital (approval no: n090327). Written informed consent was obtained from all patients or their legal representatives. In clinical practice, adult patients who had received intravenous colistin sulfate (Specification: 0.5 MU; Asia Pioneer Pharmaceutical Co., Ltd., Shanghai, China) with at least one measurement of colistin sulfate concentration were eligible for inclusion. The inclusion criteria were as follows: (1) age ≥ 18 years, (2) patients who had received colistin sulfate treatment, and (3) patients with at least one measurement of colistin sulfate concentration. The exclusion criteria were as follows: (1) patients who died within 24 h after receiving colistin sulfate treatment, (2) patients who received nebulized colistin sulfate and intrathecal colistin sulfate, and (3) patients who also received continuous renal replacement therapy during colistin sulfate treatment. […] The RIFLE criteria (risk, injury, failure, loss, and end-stage kidney disease), estimated with exclusion of the urinary output criterion, were used for detection and stratification of acute kidney injury.

[5] = Clinical outcome (14-day mortality) of patients receiving intravenous colistin sulfate; type: in vivo, human; settings: 178 critically ill patients, mostly combination therapy
Description: as §1

[6] = 178 critically ill patients, 364 concentrations, intravenous
[7] = nonparametric bootstrap, 1000 replicate datasets

CC[C@H](C)CCCCC(=O)N[C@@H](CCN)C(=O)N[C@H](C(=O)N[C@@H](CCN)C(=O)N[C@H]1CCNC(=O)[C@H]([C@@H](C)O)NC(=O)[C@H](CCN)NC(=O)[C@H](CCN)NC(=O)[C@H](CC(C)C)NC(=O)[C@@H](CC(C)C)NC(=O)[C@H](CCN)NC1=O)[C@@H](C)O [colistin sulfate] (X1-[Dab]T[Dab][Dab][Dab][dL]L[Dab][Dab]T; lactam 4-C)
Css.avg of colistin sulfate [1]: 1730 ± 980 ng/mL | tvQ, typical value of inter-compartmental clearance, final model estimate [2, 6]: 1.63 L/h | tvV2, typical value of volume of peripheral compartment distribution, final model estimate [2, 6]: 109 L | tvV1, typical value of volume of central compartment distribution, final model estimate ([2]; 178 critically ill patients, 364 concentrations, intravenous, weight as covariate): 49.7 L | dVdWT, exponential parameter coefficient of WT to V1, final model estimate ([2]; final PPK model): 1.2 | clearance ([2]; human, plasma, 178 critically ill patients, 364 concentrations, intravenous, CrCL as covariate, read-out: tvCL, typical value of central compartment clearance, final model estimate (converted)): 44.3 mL/min | dCLdCrCL, bootstrap median [2, 7]: 0.466 | dVdWT, bootstrap median [2, 7]: 1.28 | tvCL, bootstrap median [2, 7]: 2.67 L/h | tvQ, bootstrap median [2, 7]: 1.67 L/h | tvV1, bootstrap median [2, 7]: 50.04 L | tvV2, bootstrap median [2, 7]: 103.65 L | Incidence rate of nephrotoxicity induced by colistin sulfate [3]: less than 21.25% | Acute kidney injury (nephrotoxicity) incidence [4]: 11.8% | 14-day mortality rate [5]: 27.53%
